This note sets out measurements from patent EP0429304A2, “Pyridone-carboxylic acid derivatives and their use as veterinary medicines” (SHIONOGI SEIYAKU KABUSHIKI KAISHA trading under the name of …, priority 1989, dated 1991).

Holding throughout (assay): In vitro sensitivity test (agar dilution method)
Holding throughout (assay type): cell-based

Experiment [1] relates to Hemophilus paragallinarum (H.pg) 221. The following applies: agar dilution, 37°C, 20 hours, 10 % CO₂.
For experiment [2], the system named is Hemophilus paragallinarum (H.pg) S-1. The following applies: agar dilution, 37°C, 20 hours, 10 % CO₂.
For experiment [3], the system named is Salmonella typhimurium (S.typhi) 13311. The following applies: 37°C, 20 to 24 hours.
In experiment [4] the test system is Staphylococcus aureus (S.au) 209P. Particulars: 37°C, 20 to 24 hours. In short, it runs like this: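 MS (liquid dilution): Frey medium + 12 % pig-serum + 0.01 % βNAD, 37°C, 7 days. S.au (agar dilution): Mueller Hinton agar, 37°C, 20 to 24 hours. P.pis: heart infusion agar + 1.5 % NaCl, 25°C, 40 to 48 hours. All strains animal-origin.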

Take `Cl.Nc1c(F)c(N2C[C@@H]3CC[C@@H](N)[C@@H]3C2)c(F)c2c1c(=O)c(C(=O)O)cn2C1CC1` (relative stereo) [I-16]: in experiment [1], the “In vitro Sensitivity Test H.pg 221” value stood at 0.2 µg/mL. Further, the “In vitro Sensitivity Test H.pg S-1” value in experiment [2] was 0.2 µg/mL. Moreover, the “In vitro Sensitivity Test S.typhi 13311” value in experiment [3] amounted to 0.05 µg/mL. Moreover, the “In vitro Sensitivity Test S.au 209P” value in experiment [4] was 0.025 µg/mL.
